{
  "source": "patent US8399672B2",
  "about": "“Compound having affinity for amyloid” (Nihon Medi-Physics Co., Ltd., priority 2007, dated 2013)",
  "key": {"[1]": {"biological_target": "T1, amyloid in brain (aggregated Aβ1-42 injected into amygdaloid nucleus) (Homo sapiens, UniProt P05067)", "T1 construct": "Aβ1-42 (manufactured by Wako); purchased Wako", "T1 sequence (P05067 672-713)": "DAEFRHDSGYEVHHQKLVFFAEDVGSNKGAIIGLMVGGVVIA", "assay": "Confirmation of imaging of amyloid in brain (autoradiogram of brain slice after tail vein injection, Thioflavin T staining)", "format": "in vivo, male Wistar rat", "conditions": "rat", "protocol": "(1) Aβ1-42 (manufactured by Wako) was dissolved in phosphate buffer (pH 7.4) and shaken at 37° C. for 72 hours, to obtain a 1 mg/mL suspension of aggregated Aβ (hereinafter referred to as amyloid suspension in the Examples).\n(2) Under thiopental anesthesia, […] of the amyloid suspension was injected into an amygdaloid nucleus on one side of a male Wistar rat (7-week old). As a control, 2.5 μL of a phosphate buffered physiological saline solution (pH 7.4) was injected into an amygdaloid nucleus on the other side of the rat. The rats were examined 1 day after the injection of the amyloid suspension and the phosphate buffered physiological saline solution (pH 7.4).\n(3) Compound 1 in a 10 mg/mL ascorbic acid-containing physiological saline solution (24 MBq/mL in radioactivity concentration), Compound 2 in a 10 mg/mL ascorbic acid-containing physiological saline solution (30 MBq/mL in radioactivity concentration) and Compound 4 in a 10 mg/mL ascorbic acid-containing physiological saline solution (32 MBq/mL in radioactivity concentration) were each prepared to obtain a sample solution. This sample solution was injected under thiopental anesthesia into the rat through the tail vein (dosage: 0.5 mL, dosed radioactivity: 12-15 MBq equivalent).\n(4) Brain was removed 60 minutes after the injection to prepare a brain slice of 10 μm in thickness with a microtome (type: CM3050S, manufactured by LEICA). The brain slice was exposed to an imaging plate for 20 hours, and then image analysis was carried out by use of a Bio-imaging Analyzer (type: BAS-2500; manufactured by FUJIFILM Corporation).\n(5) After the completion of the image analysis using the Bio-imaging Analyzer, pathological staining with Thioflavin T was carried out to perform imaging by use of a fluorescence microscope (manufactured by NIKON Corporation; type: TE2000-U model; excitation wavelength: 400-440 nm; detection wavelength: 470 nm). Thus, it was confirmed that amyloid was deposited on the slice (FIG. 10b, FIG. 11b and FIG. 12b).\nThe procedure was conducted in the same manner as in Example 23 except that a solution of Compound 3 in 10 mg/mL ascorbic acid-containing physiological saline solution (32 MBq/mL in radioactive concentration) was used as a sample solution, and a brain was removed 120 minutes after injection of the sample solution."}, "[2]": {"assay": "Measurement of partition coefficient based on the octanol extraction method (log Poctanol)", "format": "physicochemical", "conditions": "octanol / 10 mmol/L phosphate buffer (pH 7.4); for logD: read-out: logPoctanol value", "protocol": "Partition coefficients based on the octanol extraction method (hereinafter referred to as log Poctanol) were measured, which are generally known as an indicator of permeability of compounds through the blood-brain barrier (hereinafter referred to as BBB).\nEach diethyl ether solution of Compound 1 (Example 15), Compound 2 (Example 16), Compound 3 (Example 17), Compound 4 (Example 18) and [^123I]-IMPY (Comparative Example 1) was each diluted with 10 mg/mL ascorbic acid-containing physiological saline solution, and adjusted to a radioactive concentration of 20-30 MBq/mL. To 2 mL of octanol, 10 μL each of the solutions was added, and 2 mL of 10 mmol/L phosphate buffer (pH 7.4) was added, followed by stirring for 30 seconds. After each mixture was centrifuged (2000 rpm×60 min.) with a low-speed centrifuge (type: CTD4, manufactured by Hitachi Koki, Co., Ltd.), the octanol layer and the water layer were sampled each in an amount of 1 mL, and subjected to measurement of radioactivity count with an autowell gamma system (Type: ARC-301B, manufactured by Aloka). Using the obtained radioactivity count, log Poctanol was calculated in accordance with the equation (1)."}, "[3]": {"assay": "Measurement of transferability into brain and clearance (radioactive accumulation in brain after intravenous injection)", "format": "in vivo, male Wistar rats", "conditions": "rats; for Radioactive accumulation in brain two minutes after the injection (in words): 2 min; for Radioactive accumulation per unit weight of brain, after 2 min.: 2 min after injection; for Radioactive accumulation per unit weight of brain, after 5 min.: 5 min after injection; for Radioactive accumulation per unit weight of brain, after 30 min.: 30 min after injection; for Radioactive accumulation per unit weight of brain, after 60 min.: 60 min after injection; for Clearance of radioactivity from brain (in words): up to 60 min", "protocol": "Using Compounds 1, 2 and 3, a time course change of radioactive accumulation in brain of male Wistar rats (7-week old) was measured.\nCompound 1 in 10 mg/mL ascorbic acid-containing physiological saline solution (24 MBq/mL in radioactive concentration), Compound 2 in 10 mg/mL ascorbic acid-containing physiological saline solution (30 MBq/mL in radioactive concentration), Compound 4 in 10 mg/mL ascorbic acid-containing physiological saline solution (32 MBq/mL in radioactive concentration) and Compound 3 in 10 mg/mL ascorbic acid-containing physiological saline solution (30 MBq/mL in radioactive concentration) were prepared to obtain sample solutions. The sample solutions were injected under thiopental anesthesia into the tail vein of the male Wistar rats (7-week old) (dosage: 0.05 mL, dosed radioactivity: 1.2-1.5 MBq equivalent). The rats were sacrificed by bleeding from abdominal artery, and brains were removed and subjected to measurement of mass of brains and further subjected to measurement of radioactivity (hereinafter referred to as A in this Example) with a single channel analyzer (detector type: SP-20 manufactured by OHYO KOKEN KOGYO Co., Ltd.) 2, 5, 30 and 60 minutes after the injection. Further, the radioactivity level of the rest of the whole body was measured in the same manner as above (hereinafter referred to as B in this Example). Using these measurement results, radioactive accumulation per unit weight of brain (% ID/g) at the respective time points of dissection was calculated in accordance with the following formula (2) (Examples 19 to 22).\nSeparately, [^123I]-IMPY in 10 mg/mL ascorbic acid-containing physiological saline solution (20-30 MBq/mL in radioactive concentration) was prepared, the same operation as above was conducted, and radioactive accumulation per unit weight of brain (% ID/g) at the respective time points of dissection was calculated (Comparative Example 2).\nMeanwhile, three animals were used for Examples 19 to 22 and Comparative Example 2 at the respective time points."}, "[4]": {"conditions": "reported in WO03/106439; cited from earlier work"}, "[5]": {"conditions": "normal mice, [125I]-labeled, cited from earlier work; for Transfer into brain: 2 minutes after administration"}, "[6]": {"conditions": "brain removed 60 minutes after injection"}},
  "data": [
    {"smiles": "COc1ccc2nc(-c3ccc(OCCCF)c([123I])c3)cn2c1", "note": "[Compound 1, 2-[4′-(3″-fluoropropoxy)-3′-[^123I]iodophenyl]-6-methoxyimidazo[1,2-a]pyridine]", "values": [
      {"measurement": "Accumulation at intracerebral amyloid / capability of imaging intracerebral amyloid", "setting": "[1]; [6]", "value": "property of accumulating at intracerebral amyloid"},
      {"measurement": "logD", "setting": "[2]", "value": 2.3},
      {"measurement": "Radioactive accumulation in brain two minutes after the injection (in words)", "setting": "[3]", "value": "significant radioactive accumulation"},
      {"measurement": "Radioactive accumulation per unit weight of brain, after 2 min.", "setting": "[3]", "value": 0.74, "unit": "% ID/g"},
      {"measurement": "Radioactive accumulation per unit weight of brain, after 5 min.", "setting": "[3]", "value": 0.53, "unit": "% ID/g"},
      {"measurement": "Radioactive accumulation per unit weight of brain, after 30 min.", "setting": "[3]", "value": 0.11, "unit": "% ID/g"},
      {"measurement": "Radioactive accumulation per unit weight of brain, after 60 min.", "setting": "[3]", "value": 0.03, "unit": "% ID/g"},
      {"measurement": "Clearance of radioactivity from brain (in words)", "setting": "[3]", "value": "tendency to rapidly clear away in 60 minutes"}
    ]},
    {"smiles": "COc1cc(-c2cn3cc([123I])ccc3n2)ccc1OCCF", "note": "[Compound 2, 2-[4′-(2″-fluoroethoxy)-3′-methoxyphenyl]-6-[^123I]iodoimidazo[1,2-a]pyridine]", "values": [
      {"measurement": "Accumulation at intracerebral amyloid / capability of imaging intracerebral amyloid", "setting": "[1]; [6]", "value": "property of accumulating at intracerebral amyloid"},
      {"measurement": "logD", "setting": "[2]", "value": 1.8},
      {"measurement": "Radioactive accumulation in brain two minutes after the injection (in words)", "setting": "[3]", "value": "significant radioactive accumulation"},
      {"measurement": "Radioactive accumulation per unit weight of brain, after 2 min.", "setting": "[3]", "value": 0.42, "unit": "% ID/g"},
      {"measurement": "Radioactive accumulation per unit weight of brain, after 5 min.", "setting": "[3]", "value": 0.26, "unit": "% ID/g"},
      {"measurement": "Radioactive accumulation per unit weight of brain, after 30 min.", "setting": "[3]", "value": 0.04, "unit": "% ID/g"},
      {"measurement": "Radioactive accumulation per unit weight of brain, after 60 min.", "setting": "[3]", "value": 0.02, "unit": "% ID/g"},
      {"measurement": "Clearance of radioactivity from brain (in words)", "setting": "[3]", "value": "tendency to rapidly clear away in 60 minutes"}
    ]},
    {"smiles": "COc1ccc2nc(-c3ccc(OCCF)c([123I])c3)cn2c1", "note": "[Compound 3, 2-[4′-(2″-fluoroethoxy)-3′-[^123I]iodophenyl]-6-methoxyimidazo[1,2-a]pyridine]", "values": [
      {"measurement": "Accumulation at intracerebral amyloid / capability of imaging intracerebral amyloid", "setting": "[1]; brain removed 120 minutes after injection", "value": "property of accumulating at intracerebral amyloid"},
      {"measurement": "logD", "setting": "[2]", "value": 2.6},
      {"measurement": "Radioactive accumulation in brain two minutes after the injection (in words)", "setting": "[3]", "value": "significant radioactive accumulation"},
      {"measurement": "Radioactive accumulation per unit weight of brain, after 2 min.", "setting": "[3]", "value": 0.70, "unit": "% ID/g"},
      {"measurement": "Radioactive accumulation per unit weight of brain, after 5 min.", "setting": "[3]", "value": 0.53, "unit": "% ID/g"},
      {"measurement": "Radioactive accumulation per unit weight of brain, after 30 min.", "setting": "[3]", "value": 0.08, "unit": "% ID/g"},
      {"measurement": "Radioactive accumulation per unit weight of brain, after 60 min.", "setting": "[3]", "value": 0.03, "unit": "% ID/g"},
      {"measurement": "Clearance of radioactivity from brain (in words)", "setting": "[3]", "value": "tendency to rapidly clear away in 60 minutes"}
    ]},
    {"smiles": "Cc1cc2nc(-c3ccc(OCCO)cc3)cn2cc1[123I]", "note": "[Compound 4, 2-[4′-(2″-hydroxyethoxy)phenyl]-6-[^123I]iodo-7-methylimidazo[1,2-a]pyridine]", "values": [
      {"measurement": "Accumulation at intracerebral amyloid / capability of imaging intracerebral amyloid", "setting": "[1]; [6]", "value": "property of accumulating at intracerebral amyloid"},
      {"measurement": "logD", "setting": "[2]", "value": 2.7},
      {"measurement": "Radioactive accumulation in brain two minutes after the injection (in words)", "setting": "[3]", "value": "significant radioactive accumulation"},
      {"measurement": "Radioactive accumulation per unit weight of brain, after 2 min.", "setting": "[3]", "value": 0.80, "unit": "% ID/g"},
      {"measurement": "Radioactive accumulation per unit weight of brain, after 5 min.", "setting": "[3]", "value": 0.61, "unit": "% ID/g"},
      {"measurement": "Radioactive accumulation per unit weight of brain, after 30 min.", "setting": "[3]", "value": 0.12, "unit": "% ID/g"},
      {"measurement": "Radioactive accumulation per unit weight of brain, after 60 min.", "setting": "[3]", "value": 0.03, "unit": "% ID/g"},
      {"measurement": "Clearance of radioactivity from brain (in words)", "setting": "[3]", "value": "tendency to rapidly clear away in 60 minutes"}
    ]},
    {"smiles": "CC(=C(C#N)C#N)c1ccc2cc(N(C)CCF)ccc2c1", "note": "[FDDNP, 2-(1-{6-[(2-fluoroethyl)(methyl)amino]-2-naphthyl}ethylidene)malononitrile]", "values": [
      {"measurement": "Result in reverse mutation test", "setting": "[4]", "value": "positive"}
    ]},
    {"smiles": "CN(C)c1ccc(-c2nc3ccc(I)cc3o2)cc1", "note": "[IBOX, 6-iodo-2-[4′-(N,N-dimethylamino)phenyl]benzoxazole]", "values": [
      {"measurement": "Transfer into brain", "setting": "[5]", "value": "transferred into brain"},
      {"measurement": "Clearance from normal tissues", "setting": "[5]", "value": "insufficient in clearance from normal tissues"}
    ]},
    {"smiles": "CN(C)c1ccc(-c2nc3ccc(I)cc3s2)cc1", "note": "[TZDM, 6-iodo-2-[4′-(N,N-dimethylamino)phenyl]benzothiazole]", "values": [
      {"measurement": "Transfer into brain", "setting": "[5]", "value": "transferred into brain"},
      {"measurement": "Clearance from normal tissues", "setting": "[5]", "value": "insufficient in clearance from normal tissues"}
    ]},
    {"smiles": "CN(C)c1ccc(-c2cn3cc([123I])ccc3n2)cc1", "note": "[[^123I]-IMPY, reference compound]", "values": [
      {"measurement": "logPoctanol value", "setting": "[2]", "value": 1.9},
      {"measurement": "Radioactive accumulation per unit weight of brain, after 2 min.", "setting": "[3]", "value": 1.19, "unit": "% ID/g"},
      {"measurement": "Radioactive accumulation per unit weight of brain, after 5 min.", "setting": "[3]", "value": 0.97, "unit": "% ID/g"},
      {"measurement": "Radioactive accumulation per unit weight of brain, after 30 min.", "setting": "[3]", "value": 0.23, "unit": "% ID/g"},
      {"measurement": "Radioactive accumulation per unit weight of brain, after 60 min.", "setting": "[3]", "value": 0.09, "unit": "% ID/g"}
    ]},
    {"smiles": "CN(C)c1ccc(/C=C/c2ccc(I)cc2)cc1", "note": "[m-I-SB, (E)-4-dimethylamino-4′-iodostilbene]", "values": [
      {"measurement": "Transfer into brain", "setting": "[5]", "value": "transferred into brain"},
      {"measurement": "Clearance from normal tissues", "setting": "[5]", "value": "insufficient in clearance from normal tissues"}
    ]}
  ]
}
